Laboratory results published in ChEMBL document CHEMBL1135339, “Structure-activity relationships of novel anti-malarial agents. Part 4: N-(3-benzoyl-4-tolylacetylaminophenyl)-3-(5-aryl-2-furyl)acrylic acid amides” (Bioorg Med Chem Lett, 2002).

Test system: Plasmodium falciparum
Test: Inhibitory concentration against multidrug-resistant Plasmodium falciparum Dd2.
Assay type: functional, organism-based

Row | SMILES | IC50 [nM]
1 | CCc1ccc(-c2ccc(/C=C/C(=O)Nc3ccc(NC(=O)Cc4ccc(C)cc4)c(C(=O)c4ccccc4)c3)o2)cc1 | 88
2 | Cc1ccc(CC(=O)Nc2ccc(NC(=O)/C=C/c3ccc(-c4cccc5ccccc45)o3)cc2C(=O)c2ccccc2)cc1 | 1000
3 | Cc1ccc(CC(=O)Nc2ccc(NC(=O)/C=C/c3ccc(-c4ccc(C(C)(C)C)cc4)o3)cc2C(=O)c2ccccc2)cc1 | 300
4 | Cc1ccc(CC(=O)Nc2ccc(NC(=O)/C=C/c3ccc(-c4ccc(C)cc4)o3)cc2C(=O)c2ccccc2)cc1 | 120
5 | Cc1ccc(CC(=O)Nc2ccc(NC(=O)/C=C/c3ccc(-c4ccc(Cl)cc4)o3)cc2C(=O)c2ccccc2)cc1 | 145
6 | CCOc1ccc(-c2ccc(/C=C/C(=O)Nc3ccc(NC(=O)Cc4ccc(C)cc4)c(C(=O)c4ccccc4)c3)o2)cc1 | 300
7 | CSc1ccc(-c2ccc(/C=C/C(=O)Nc3ccc(NC(=O)Cc4ccc(C)cc4)c(C(=O)c4ccccc4)c3)o2)cc1 | 84
8 | Cc1ccc(CC(=O)Nc2ccc(NC(=O)/C=C/c3ccc(-c4ccc([N+](=O)[O-])cc4)o3)cc2C(=O)c2ccccc2)cc1 | 75
9 | Cc1ccc(CC(=O)Nc2ccc(NC(=O)/C=C/c3ccc(-c4ccc(Br)cc4)o3)cc2C(=O)c2ccccc2)cc1 | 125
10 | COc1ccc(-c2ccc(/C=C/C(=O)Nc3ccc(NC(=O)Cc4ccc(C)cc4)c(C(=O)c4ccccc4)c3)o2)cc1 | 130
11 | Cc1ccc(CC(=O)Nc2ccc(NC(=O)/C=C/c3ccc(-c4ccc(OC(F)(F)F)cc4)o3)cc2C(=O)c2ccccc2)cc1 | 210
12 | Cc1ccc(CC(=O)Nc2ccc(NC(=O)/C=C/c3ccc(-c4ccc5ccccc5c4)o3)cc2C(=O)c2ccccc2)cc1 | 200
13 | Cc1ccc(CC(=O)Nc2ccc(NC(=O)/C=C/c3ccc(-c4cccc([N+](=O)[O-])c4)o3)cc2C(=O)c2ccccc2)cc1 | 590
14 | CCCOc1ccc(-c2ccc(/C=C/C(=O)Nc3ccc(NC(=O)Cc4ccc(C)cc4)c(C(=O)c4ccccc4)c3)o2)cc1 | 750
15 | Cc1ccc(CC(=O)Nc2ccc(NC(=O)/C=C/c3ccc(-c4ccc(F)cc4)o3)cc2C(=O)c2ccccc2)cc1 | 320
16 | Cc1ccc(CC(=O)Nc2ccc(NC(=O)/C=C/c3ccc(-c4ccccc4)o3)cc2C(=O)c2ccccc2)cc1 | 415
17 | Cc1ccc(CC(=O)Nc2ccc(NC(=O)/C=C/c3ccc(-c4ccccc4[N+](=O)[O-])o3)cc2C(=O)c2ccccc2)cc1 | 670
18 | C=Cc1ccc(-c2ccc(/C=C/C(=O)Nc3ccc(NC(=O)Cc4ccc(C)cc4)c(C(=O)c4ccccc4)c3)o2)cc1 | 85
